Measurements reported in US4535075A, “Dithiolane derivative, process for producing the same and use thereof” (Nihon Nohyaku Co., Ltd., priority 1982, dated 1985).

Assays:
[1] = system: liver damage induced by carbon tetrachloride; assay: Protective (Controlling) effect on liver damage induced by carbon tetrachloride; assay type: in vivo, mice (dd strain); conditions: 250 mg/kg p.o., CCl4 0.05 ml/kg after 6 h, 24 h; for p-GPT: CCl4 alone >2,100; for Liver Damage Index: average of 5 mice, 0 Normal, 2 Slightly recognized, 4 Clearly observable damage, 6 Heavy damage, CCl4 alone 5.0
Source text: Protective (Controlling) Effect on liver damage induced by carbon tetrachloride.
Carbon tetrachloride administration induces centrilobular necrosis of the liver associated with loss of diphosphopyridine nucleotide, hepatic glycogen, coenzyme A and increase in neutral fat. Release of several enzymes from the hepatocytes, and increases of enzyme activities in the plasma are recognized as the result of the damage of the liver.
A suitable means for evaluating the degree induced by carbon tetrachloride or the degree of protection afforded by drugs is to study the plasma glutamic-pyruvic transaminase (p-GPT) activity. […]
After 6 hours, carbon tetrachloride was administered orally 0.05 ml/kg.
Animals were killed 24 hours after carbon tetrachloride administration, and the liver was grossly observed.
The plasma was obtained by centrifugation. Activity of p-GPT were determined by the method of Reitman and Frankel and expressed in Karmen units.
Score for liver damage index was as follows:
1 Each figure indicated average of 5 mice.

[2] = system: liver damage induced by α-naphthyl isothiocyanate (ANIT); assay: Protective effect on liver damage induced by ANIT (Method 1); assay type: in vivo, mice; conditions: 2 x 250 mg/kg p.o., ANIT 35 mg/kg p.o., 24 h
Source text: (§1) Protective effect on liver damage induced by α-naphthyl isothiocyanate (referred to as "ANIT", hereinafter).
It is well known that experimental cholestasis is accomplished by administration with ANIT in mice and rats, and studied as a cholestasis model in human being.
ANIT and CCl4 induce necrosis in the liver. ANIT causes it as small focci in perilobular parenchyna and CCl4 causes centrilobular parenchymal coagulation necrosis.
From these information, the elevation of plasma GPT activity in these models are thought to have defferent characteristics.
Test compounds, dissolved or suspended in olive oil or diethyleneglycol, were orally administered 2 times at intervals of 3 hrs to mice at the dose of 250 mg/kg. At 3 hrs after the second administration with test compounds, ANIT was administered orally at 35 mg/kg.
Mice were sacrificed at 24 hrs after ANIT administration and blood samples were collected. The blood samples were centrifuged and plasma was obtained.
Plasma GPT activity and alkaline phosphatase activity were determined by Reitman & Frankel's method and Bessey-Lowry's method, respectively. The activity was expressed with Karmen Unit and Bessey-Lowry Unit, respectively.

[3] = system: liver damage induced by α-naphthyl isothiocyanate (ANIT); assay: Protective effect on liver damage induced by ANIT (Method 2); assay type: in vivo, mice (dd strain); conditions: Table 3-3, 250 mg/kg p.o., ANIT 35 mg/kg p.o. after 6 h, 24 h; for Alkaline phosphatase activity: control 2.9, ANIT alone >9.6; for p-GPT: control 17.5, ANIT alone >460.2
Procedure: as §1
Test compounds, dissolved or suspended in olive oil or diethyleneglycol, were orally administered at the dose of 250 mg/kg to the mice (Six or Seven-week-old male mice-dd strain).
After 6 hours, ANIT dissolved in olive oil, was aministered orally at 35 mg/kg.
Mice were sacrificed at 24 hours after ANIT administration and blood samples were collected. The blood samples were centrifuged and plasma was obtained.
Plasma GPT activity and alkaline phosphatase activity were determined by Reitman & Frankel's method and Bessey-Lowry's method, respectively.
The activity was expressed with Karmen Unit and Bessey-Lowry Unit, respectively.

[4] = Table 3-1, control 3.3, ANIT alone 5.3
[5] = Table 3-1, control 7.4, ANIT alone 324.0

| Structure (SMILES) | p-GPT [1] [Karmen units] | Liver Damage Index [1] | Alkaline phosphatase activity [2, 4] [B-L.V.] | p-GPT [2, 5] [K.U.] | Alkaline phosphatase activity ([2]; Table 3-2, ANIT alone 5.3) [B-L.V.] | p-GPT ([2]; Table 3-2, ANIT alone >653.7) [K.U.] | Alkaline phosphatase activity [3] [B-L.V.] | p-GPT [3] [K.U.] |
| --- | --- | --- | --- | --- | --- | --- | --- | --- |
| CCCCOC(=O)C(C(=O)OCCCC)=C1SC(O)C(O)S1 (stereo not shown) [Compound 4] | 18 | 0.0 | 3.3 | 26.8 | – | – | – | – |
| CCC(C)OC(=O)C(C(=O)OC(C)CC)=C1SC(O)C(O)S1 (stereo not shown) [Compound 6] | 21 | 0.0 | 4.9 | 142.0 | – | – | – | – |
| CC(C)(C)OC(=O)C(C(=O)OC(C)(C)C)=C1SC(O)C(O)S1 (stereo not shown) [Compound 7] | 90 | 0.0 | – | – | 3.5 | 422.8 | – | – |
| CC(C)CCOC(=O)C(C(=O)OCCC(C)C)=C1SC(O)C(O)S1 (stereo not shown) [Compound 9] | 47 | 0.0 | – | – | 3.4 | 27.2 | – | – |
| O=C(OC1CCCCC1)C(C(=O)OC1CCCCC1)=C1SC(O)C(O)S1 (stereo not shown) [Compound 10] | 72 | 0.0 | – | – | 4.9 | 363.7 | – | – |
| O=C(OCc1ccccc1)C(C(=O)OCc1ccccc1)=C1SC(O)C(O)S1 (stereo not shown) [Compound 11] | 33 | 0.0 | – | – | 4.3 | 437.5 | – | – |
| C#CCOC(=O)C(C(=O)OCC#C)=C1SC(O)C(O)S1 (stereo not shown) [Compound 13] | 30 | 0.0 | – | – | 4.5 | 265.6 | – | – |
| COCCOC(=O)C(C(=O)OCCOC)=C1SC(O)C(O)S1 (stereo not shown) [Compound 14] | 56 | 0.2 | – | – | 3.1 | 11.5 | – | – |
| COCC(C)OC(=O)C(C(=O)OC(C)COC)=C1SC(O)C(O)S1 (stereo not shown) [Compound 15, bis(3-methoxypropan-2-yl)4,5-dihydroxy-1,3-dithiolan-2-ylidenemalonate] | 39 | 0.0 | – | – | 3.7 | 134.5 | – | – |
| CCC(COC)OC(=O)C(C(=O)OC(CC)COC)=C1SC(O)C(O)S1 (stereo not shown) [Compound 16] | 30 | 0.2 | – | – | 5.0 | 275.2 | – | – |
| CCCOC(=O)C(C(=O)OCC)=C1SC(O)C(O)S1 (stereo not shown) [Compound 17] | 40 | 0.6 | 4.8 | 242.0 | – | – | – | – |
| CCCCOC(=O)C(C(=O)OCC)=C1SC(O)C(O)S1 (stereo not shown) [Compound 18] | 28 | 0.0 | 4.8 | 180.8 | – | – | – | – |
| CCOC(=O)C(C(=O)OCC(C)C)=C1SC(O)C(O)S1 (stereo not shown) [Compound 19] | 9 | 0.4 | 5.1 | 170.5 | – | – | – | – |
| CCCOC(=O)C(C(=O)OC(C)C)=C1SC(O)C(O)S1 (stereo not shown) [Compound 20] | 30 | 0.4 | 4.0 | 163.4 | – | – | – | – |
| CCCCOC(=O)C(C(=O)OC(C)C)=C1SC(O)C(O)S1 (stereo not shown) [Compound 21] | 9 | 0.0 | 4.5 | 293.1 | – | – | – | – |
| CC(C)COC(=O)C(C(=O)OC(C)C)=C1SC(O)C(O)S1 (stereo not shown) [Compound 22] | 9 | 0.0 | 5.0 | 221.0 | – | – | – | – |
| COC(=O)C(C(C)=O)=C1SC(O)C(O)S1 (stereo not shown) [Compound 34] | 31 | 0.0 | – | – | – | – | 4.2 | 32.7 |
| CCOC(=O)C(C(C)=O)=C1SC(O)C(O)S1 (stereo not shown) [Compound 35] | 92 | 0.0 | – | – | – | – | 4.6 | > 245.0 |

| Structure (SMILES) | p-GPT [1] [Karmen units] | Liver Damage Index [1] | Alkaline phosphatase activity [2, 4] [B-L.V.] | p-GPT [2, 5] [K.U.] | Alkaline phosphatase activity ([2]; Table 3-2, ANIT alone 5.3) [B-L.V.] | p-GPT ([2]; Table 3-2, ANIT alone >653.7) [K.U.] | Alkaline phosphatase activity [3] [B-L.V.] | p-GPT [3] [K.U.] |
| --- | --- | --- | --- | --- | --- | --- | --- | --- |
| CCCOC(=O)C(C(C)=O)=C1SC(O)C(O)S1 (stereo not shown) [Compound 36] | 30 | 0.2 | – | – | – | – | 3.9 | 60.0 |
| CC(=O)C(C(=O)OC(C)C)=C1SC(O)C(O)S1 (stereo not shown) [Compound 37, isopropyl 4,5-dihydroxy-1,3-dithiolan-2-ylideneacetoacetate] | 149 | 0.4 | – | – | – | – | 4.4 | 177.4 |
| CCCCOC(=O)C(C(C)=O)=C1SC(O)C(O)S1 (stereo not shown) [Compound 38] | 31 | 0.0 | – | – | – | – | 5.3 | 29.4 |
| CC(=O)C(C(=O)OCC(C)C)=C1SC(O)C(O)S1 (stereo not shown) [Compound 39] | 19 | 0.2 | – | – | – | – | 6.8 | 70.7 |
| CCC(C)OC(=O)C(C(C)=O)=C1SC(O)C(O)S1 (stereo not shown) [Compound 40] | 172 | 0.4 | – | – | – | – | 5.2 | 272.5 |
| CCOC(=O)C(C(=O)C(C)C)=C1SC2OC(=O)OC2S1 (stereo not shown) [Compound 102] | 48.5 | 1.2 | – | – | – | – | – | – |
| CCCCC(=O)C(C(=O)OCC)=C1SC2OC(=O)OC2S1 (stereo not shown) [Compound 103] | 14.7 | 0 | – | – | – | – | – | – |
| CCOC(=O)C(C(=O)CC(C)C)=C1SC2OC(=O)OC2S1 (stereo not shown) [Compound 104] | 17.6 | 0 | – | – | – | – | – | – |
| CCCCCCC(=O)C(C(=O)OCC)=C1SC2OC(=O)OC2S1 (stereo not shown) [Compound 105] | 107.4 | 1.6 | – | – | – | – | – | – |
| CCOC(=O)C(C(=O)Cc1ccccc1)=C1SC2OC(=O)OC2S1 (stereo not shown) [Compound 106] | 602.2 | 1.0 | – | – | – | – | – | – |
| CCOC(=O)C(C(=O)OCC)=C1SC2OC(=S)OC2S1 (stereo not shown) [Compound 107] | 42.6 | 0.6 | – | – | – | – | – | – |
| CCCOC(=O)C(C(=O)OCCC)=C1SC2OC(=S)OC2S1 (stereo not shown) [Compound 108] | 31.0 | 0 | – | – | – | – | – | – |
| CC(C)OC(=O)C(C(=O)OC(C)C)=C1SC2OC(=S)OC2S1 (stereo not shown) [Compound 109] | 139.3 | 0.4 | – | – | – | – | – | – |
| CC(C)COC(=O)C(C(=O)OCC(C)C)=C1SC2OC(=S)OC2S1 (stereo not shown) [Compound 110] | 554.7 | 1.2 | – | – | – | – | – | – |
| CCC(C)OC(=O)C(C(=O)OC(C)CC)=C1SC2OC(=S)OC2S1 (stereo not shown) [Compound 111] | 18.6 | 0.8 | – | – | – | – | – | – |
| C=CCOC(=O)C(C(=O)OCC=C)=C1SC2OC(=S)OC2S1 (stereo not shown) [Compound 112, 7-bis(allyloxycarbonyl)methylene-3-thioxo-2,4-dioxa-6,8-dithiabicyclo[3,3,0]octane] | 20.2 | 0.6 | – | – | – | – | – | – |
| C#CCOC(=O)C(C(=O)OCC#C)=C1SC2OC(=S)OC2S1 (stereo not shown) [Compound 113] | 13.3 | 0.6 | – | – | – | – | – | – |
| CC(C)OC(=O)C(C(=O)OC(C)C)=C1SCC(O)S1 (stereo not shown) [Compound A, reference compound] | – | – | – | – | 8.5 | > 755.0 | – | – |
